Laboratory results: US20100168133A1, “USE OF SUBSTITUTED QUINOLINE DERIVATIVES FOR THE TREATMENT OF DRUG RESISTANT MYCOBACTERIAL DISEASES” (priority 2004, published 2010)
Values after ≈ are worked out from the molar mass of the structure shown.

Tested on: 73 M. tuberculosis strains (41 fully susceptible, 32 MDR)
Test: microbe, parasite or virus in culture
Assay type: cell-based

## COc1nc2ccc(Br)cc2cc1[C@@H](c1ccccc1)[C@@](O)(CCN(C)C)c1cccc2ccccc12 [Compound 12, (αS,βR)-6-bromo-α-[2-(dimethylamino)ethyl]-2-methoxy-α-1-naphthalenyl-β-phenyl-3-quinolineethanol]
  difference in MIC between fully susceptible and MDR M. tuberculosis strains: No difference in MIC
Mycobacterium tuberculosis, 504 h, the majority of the 73 strains, agar plates, 36° C., 3 weeks
  MIC: 0.032 µg/mL (≈ 0.0576 µM)
All the tested strains (73), agar plates, 36° C., 3 weeks
  concentrations at which no growth was seen: higher than 0.064 mg/L
